Values of other authors, collected in patent publication US20100310474A1, “PROTEIN CAGES FOR THE DELIVERY OF MEDICAL IMAGING AND THERAPEUTIC AGENTS” (MONTANA STATE UNIVERSITY, priority 2002, published 2010).

Experiments:
[1] = test system: tumor cells in culture
[2] = test system: tumor cells; settings: free peptide
[3] = test system: experimental tumor lung colonization; settings: free peptide
[4] = test system: tumor angiogenesis; settings: mice
[5] = test system: platlets and neutrophils; settings: cells bearing 67 kDa LBP

Row | Compound | cytotoxic effects on tumor cells [1] | invasion of basement membranes by tumor cells [2] | experimental tumor lung colonization [3] | tumor angiogenesis [4] | toxic effect on platelets and neutrophils [5]
1 | Cc1ccc(C(=O)Nc2ccc(S(=O)(=O)O)c3cc(S(=O)(=O)O)cc(S(=O)(=O)O)c23)cc1NC(=O)c1cccc(NC(=O)Nc2cccc(C(=O)Nc3cc(C(=O)Nc4ccc(S(=O)(=O)O)c5cc(S(=O)(=O)O)cc(S(=O)(=O)O)c45)ccc3C)c2)c1 [suramin] | cytotoxic effects | – | – | – | –
2 | CDPGYIGSRC [peptide 11] | – | effectively blocks | reduces | inhibits | no toxic effect
